A compilation of properties of binary mixtures (doi:10.1007/s10973-018-7427-0)

Assay: xn = mol fraction of the nth substance listed
Conditions: 100 kPa

CCCC[n+]1ccn(C)c1.F[P-](F)(F)(F)(F)F + C=CN1CCCC1=O
x1 = 1
Conditions | speed of sound [m/s]
298.15 K | 1443.8
303.15 K | 1431.7
308.15 K | 1419.8
313.15 K | 1408.2
318.15 K | 1396.8
323.15 K | 1385.6

C=CN1CCCC1=O + CCCC[n+]1ccn(C)c1.F[P-](F)(F)(F)(F)F
speed of sound [m/s]
Conditions | x2 = 0 | x2 = 0.1011 | x2 = 0.2059 | x2 = 0.3019 | x2 = 0.3937 | x2 = 0.5023 | x2 = 0.584 | x2 = 0.6946 | x2 = 0.7788 | x2 = 0.8707
298.15 K | 1521.5 | – | 1506 | 1496.4 | 1487.8 | 1477.6 | 1470.5 | 1461.5 | 1455.7 | 1449.9
303.15 K | – | 1498.9 | 1490.1 | – | 1473.5 | 1463.9 | 1457.4 | 1449.1 | 1443.4 | 1437.9
308.15 K | 1483.7 | 1481.8 | – | – | 1459.2 | 1450.2 | 1444.3 | – | 1431.1 | 1425.8
313.15 K | 1465 | 1464.7 | 1458.3 | – | 1444.9 | – | 1431.2 | – | 1419 | 1414
318.15 K | 1446.5 | – | – | 1436.6 | 1430.9 | 1423.4 | 1418.4 | 1411.6 | 1407 | 1402.3
323.15 K | – | 1431.1 | – | – | 1416.9 | 1410.2 | 1405.7 | 1399.4 | 1395.1 | 1390.8
